{
  "source": "patent EP0438873A1",
  "about": "“Inhibitor of ribonucleotide reductase of herpes viruses” (MERCK & CO. INC., priority 1989, dated 1991)",
  "origin": "cited, not measured here",
  "test_system": "ribonucleotide reductase enzyme of herpes simplex virus",
  "conditions": "from Dutia et al., Cohen et al., U.S. Patent No. 4,795,740",
  "note": "Where no end group is shown, it is not given here.",
  "data": [
    {"substance": "Tyr Ala Gly Ala Val Val Asn Asp Leu (YAGAVVNDL; printed: Tyr Ala Gly Ala Val Val Asn Asp Leu) [the nonapeptide disclosed by Dutia et al. and Cohen et al]", "values": [
      {"measurement": "inhibited in vitro the activity of this enzyme (HSV ribonucleotide reductase)", "result": "inhibited"}
    ]},
    {"substance": "YGAVVNDL [8-desalanine homolog of the nonapeptide, disclosed by Dutia et al]", "values": [
      {"measurement": "inhibited in vitro the activity of this enzyme (HSV ribonucleotide reductase)", "result": "inhibited"}
    ]}
  ]
}
